Legend:
[1] = system: CD1 mice; experiment: In vivo chronic constriction injury (CCI) model of neuropathic pain, mechanical allodynia (von Frey); conditions: 100 mg/kg oral dose, 1 hour after dosing, average of eight mice; vehicle 0%, control 100%
Method: Test compounds were evaluated for analgesic effect in an in vivo chronic constriction injury (CCI) model of neuropathic pain. CD1 mice (Charles River) were used for these studies. Prior to testing (2-4 weeks) animals underwent a surgical procedure consisting of approximately 3 loose ligatures around the sciatic nerve. Following sterilization procedures, under isofluorane anesthetic, a 1.5 cm incision was made dorsal to the pelvis. The biceps femoris and gluteous superficialis (right side) were separated and the sciatic nerve exposed, isolated, and 2-4 loose ligatures (5-0 chromic gut) with less than 1 mm spacing were placed around it. Following hemostasis, the wound was sutured (layer of muscle closed with 5-0 nylon suture, and the wound closed with surgical staples) and coated with iodine. The mice were allowed to recover on a warming plate and were returned to their home cages (soft bedding) when able to walk on their own.
Two to four weeks after the surgery, test compound was administered orally (PO) in these mice, and mechanical allodynia was evaluated 1 hour after oral dosing where the threshold to response was assessed using calibrated von Frey monofilaments. The von Frey monofilaments were applied to the hind paw at increasing forces until the animal responded by lifting its paw. […]
Each test compound was evaluated in eight different mice. […]

[2] = In vitro human microsomal stability assay; assay type: in vitro ADME; conditions: 0.5 μM substrate, 0.25 mg/mL microsomal protein, pH 7.4, 37° C., NADPH, 30 minutes
Summary of the method: (§1)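 Liver microsomes: Sprague-Dawley rat for rat assay, human for human assay; 37 °C; NADPH cofactor, also spiked into time-zero plates.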

[3] = In vitro rat microsomal stability assay; assay type: in vitro ADME, rat (Sprague-Dawley); conditions: 0.5 μM substrate, 0.25 mg/mL microsomal protein, pH 7.4, 37° C., NADPH, 30 minutes
Summary of the method: as §1

## C[C@]1(O)C[C@](c2cc(C(F)(F)F)ccn2)([C@H](O)c2ccccn2)C1 (relative stereo) [Example 285, cis-3-[(S)-hydroxy(pyridin-2-yl)methyl]-1-methyl-3-[4-(trifluoromethyl)-pyridin-2-yl]cyclobutanol]
[1]
  % EFFECT: 59%
[2]
  HUMAN […] (% REMAINING AFTER 30 MINUTES): 83%
[3]
  RAT […] (% REMAINING AFTER 30 MINUTES): 69%
